Target: T1, PI3Kδ (Homo sapiens, UniProt O00329)
T1 construct: endogenous in cells; host or cells: Raji cells
Test: Cell Based Assay for PI3Kδ (AKT phosphorylation, AlphaScreen SureFire, anti-IgM stimulated Raji cells)
Settings: compounds 1 h, anti-IgM (3 μg/mL) 30 min, phosphorylation of AKT, read-out: PI3Kδ inhibition IC50
Protocol: [formula] C) Cell Based Assay for PI3Kδ
Raji cells were maintained in RPMI-1640 (Sigma) supplemented with 10% fetal bovine serum (heat inactivated) (FBS, Sigma), 100 U penicillin/mL, and […] streptomycin and incubated at 37° C. and 5% CO2. Cells were centrifuged and resuspended in a complete medium. The required numbers of cells were transferred to a tissue culture flask containing medium without serum for 1 h at 37° C., 5% CO2. Following 1 h serum starvation, cells were centrifuged and resuspended in Hank's Balanced Salt Solution (HBSS, Sigma) and seeded in at a density of 1 million cells/well in 96-well clear bottom plates. The cells were treated with test compounds for 1 h at 37° C., 5% CO2. Cells were then stimulated with anti-IgM (3 μg/mL) for 30 min. After Stimulation, cells were lysed with 15 μL of 5× lysis buffer and the plate was shaken on an orbital plate shaker at approximately 300 rpm for 10 min. AlphaScreen® SureFire® Cell-based Assay (Perkin-Elmer, Waltham, Mass., USA) was performed to measure phosphorylation of AKT, in the cells according to the manufacturer's instructions. The luminescence was measured using an alpha technology-compatible plate reader BMG Labtech, Germany) at 520-620 nm. Percentage inhibition was calculated according to formula: […]
IC50 values were calculated by plotting % inhibition against the respective concentrations of test compounds using GraphPad Prism 5.

T1 sequence (O00329 whole entry): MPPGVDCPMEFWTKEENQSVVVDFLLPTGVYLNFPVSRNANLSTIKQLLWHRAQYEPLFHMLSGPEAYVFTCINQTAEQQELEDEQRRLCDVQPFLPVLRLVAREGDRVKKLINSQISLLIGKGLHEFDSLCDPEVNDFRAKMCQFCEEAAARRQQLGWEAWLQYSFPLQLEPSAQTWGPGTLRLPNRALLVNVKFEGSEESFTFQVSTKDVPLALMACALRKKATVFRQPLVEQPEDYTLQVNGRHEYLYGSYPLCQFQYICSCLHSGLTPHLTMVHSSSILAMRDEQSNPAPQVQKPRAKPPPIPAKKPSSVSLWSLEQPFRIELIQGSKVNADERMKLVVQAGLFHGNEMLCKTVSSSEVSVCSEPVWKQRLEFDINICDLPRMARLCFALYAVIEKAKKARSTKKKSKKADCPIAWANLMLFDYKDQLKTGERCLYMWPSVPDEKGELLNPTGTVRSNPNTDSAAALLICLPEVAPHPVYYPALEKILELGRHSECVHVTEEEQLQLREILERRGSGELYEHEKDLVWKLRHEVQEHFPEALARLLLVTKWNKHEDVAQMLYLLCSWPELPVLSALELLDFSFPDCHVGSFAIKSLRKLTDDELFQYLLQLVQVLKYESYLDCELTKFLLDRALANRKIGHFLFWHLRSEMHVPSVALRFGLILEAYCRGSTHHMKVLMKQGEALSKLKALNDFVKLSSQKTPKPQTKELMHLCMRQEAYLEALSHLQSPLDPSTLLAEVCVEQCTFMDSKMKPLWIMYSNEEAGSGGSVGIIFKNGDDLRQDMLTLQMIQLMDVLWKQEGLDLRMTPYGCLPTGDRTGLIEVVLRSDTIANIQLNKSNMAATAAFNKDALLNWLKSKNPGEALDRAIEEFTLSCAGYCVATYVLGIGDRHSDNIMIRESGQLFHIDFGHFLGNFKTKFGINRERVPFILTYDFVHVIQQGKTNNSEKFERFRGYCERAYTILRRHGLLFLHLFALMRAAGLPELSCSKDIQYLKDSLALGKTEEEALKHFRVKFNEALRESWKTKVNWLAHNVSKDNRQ
T1 sequence (P27986 whole entry partner): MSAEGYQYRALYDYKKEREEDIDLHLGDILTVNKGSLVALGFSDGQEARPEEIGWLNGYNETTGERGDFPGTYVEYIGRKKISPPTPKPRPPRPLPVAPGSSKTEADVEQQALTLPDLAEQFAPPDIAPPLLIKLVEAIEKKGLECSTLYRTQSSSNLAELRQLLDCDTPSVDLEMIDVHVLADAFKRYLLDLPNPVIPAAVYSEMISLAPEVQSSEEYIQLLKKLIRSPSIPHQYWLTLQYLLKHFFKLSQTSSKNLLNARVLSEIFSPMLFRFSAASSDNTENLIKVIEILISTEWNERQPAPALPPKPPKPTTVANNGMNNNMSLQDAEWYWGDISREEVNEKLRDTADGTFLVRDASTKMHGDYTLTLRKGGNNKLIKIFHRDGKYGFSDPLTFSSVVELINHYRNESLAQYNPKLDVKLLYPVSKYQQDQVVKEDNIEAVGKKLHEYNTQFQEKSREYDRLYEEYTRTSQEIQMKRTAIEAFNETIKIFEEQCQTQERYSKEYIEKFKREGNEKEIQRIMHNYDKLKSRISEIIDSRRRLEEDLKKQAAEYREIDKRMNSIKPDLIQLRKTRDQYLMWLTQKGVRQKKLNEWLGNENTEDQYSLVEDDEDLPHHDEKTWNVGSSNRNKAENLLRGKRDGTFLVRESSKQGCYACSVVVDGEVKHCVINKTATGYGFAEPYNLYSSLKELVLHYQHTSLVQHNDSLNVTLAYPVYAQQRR

SMILES | IC50 [nM]
CC(c1cc2ccc(F)cn2c(=O)c1-c1ccccc1)n1cc(-c2cc(O)cc(F)c2)c2c(N)ncnc21 (stereo not shown) [Compound 63, 2-(1-(4-amino-5-(3-fluoro-5-hydroxyphenyl)-7H-pyrrolo[2,3-d]pyrimidin-7-yl)ethyl)-7-fluoro-3-phenyl-4H-quinolizin-4-one] | 0.1 to 10
Cc1c(F)ccc2cc([C@H](C)Nc3ncnc(N)c3C#N)c(-c3cccc(F)c3)c(=O)n12 (single isomer, unassigned) [Compound 23a, 4-Amino-6-((1-(7-fluoro-3-(3-fluorophenyl)-6-methyl-4-oxo-4H-quinolizin-2-yl)ethyl)amino)pyrimidine-5-carbonitrile] | 0.1 to 10
C[C@H](Nc1nc(N)nc2[nH]cnc12)c1cc2ccc(F)cn2c(=O)c1-c1cccc(F)c1 (single isomer, unassigned) [Compound 15a, 2-(1-((2-Amino-9H-purin-6-yl)amino)ethyl)-7-fluoro-3-(3-fluorophenyl)-4H-quinolizin-4-one] | 11 to 50
CC[C@H](Nc1nc(N)nc2[nH]cnc12)c1cc2ccc(F)cn2c(=O)c1-c1cccc(F)c1 (single isomer, unassigned) [Compound 47b, 2-(1-((2-amino-9H-purin-6-yl)amino)propyl)-7-fluoro-3-(3-fluorophenyl)-4H-quinolizin-4-one] | 11 to 50
C[C@H](Nc1ncnc(N)c1C#N)c1cc2ccccn2c(=O)c1-c1ccccc1 (single isomer, unassigned) [Compound 4a, 4-Amino-6-((1-(4-oxo-3-phenyl-4H-quinolizin-2-yl)ethyl)amino)pyrimidine-5-carbonitrile] | 11 to 50
C[C@H](Nc1ncnc(N)c1C#N)c1cc2ccc(F)cn2c(=O)c1-c1cccc(OC(F)(F)F)c1 [Compound 34, (S)-4-amino-6-((1-(7-fluoro-4-oxo-3-(3-(trifluoromethoxy)phenyl)-4H-quinolizin-2-yl)ethyl)amino)pyrimidine-5-carbonitrile] | 11 to 50
Cc1cccc2cc([C@H](C)Nc3nc(N)nc4[nH]cnc34)c(-c3cc(F)cc(F)c3)c(=O)n12 (single isomer, unassigned) [Compound 18a, 2-(1-((2-amino-9H-purin-6-yl)amino)ethyl)-3-(3,5-difluorophenyl)-6-methyl-4H-quinolizin-4-one] | 0.1 to 10
CC(c1cc2ccc(F)cn2c(=O)c1-c1ccccc1)n1nc(-c2ccc(F)c(O)c2)c2c(N)ncnc21 (stereo not shown) [Compound 61, 2-(1-(4-amino-3-(4-fluoro-3-hydroxyphenyl)-1H-pyrazolo[3,4-d]pyrimidin-1-yl)ethyl)-7-fluoro-3-phenyl-4H-quinolizin-4-one] | 0.1 to 10
CC(c1cc2ccc(F)cn2c(=O)c1-c1ccccc1)n1nc(-c2ccc3c(c2)CC(=O)N3)c2c(N)ncnc21 (stereo not shown) [Compound 65, 2-(1-(4-amino-3-(2-oxoindolin-5-yl)-1H-pyrazolo[3,4-d]pyrimidin-1-yl)ethyl)-7-fluoro-3-phenyl-4H-quinolizin-4-one] | 51 to 250
CC[C@H](Nc1nc(N)nc(N)c1C#N)c1cc2ccc(F)cn2c(=O)c1-c1cccc(F)c1 (single isomer, unassigned) [Compound 45a, 2,4-diamino-6-((1-(7-fluoro-3-(3-fluorophenyl)-4-oxo-4H-quinolizin-2-yl)propyl)amino)pyrimidine-5-carbonitrile] | 0.1 to 10
C[C@H](Nc1ncnc(N)c1C#N)c1cc2ccc(F)cn2c(=O)c1-c1cc(F)cc(F)c1 [Compound 48, (S)-4-amino-6-((1-(3-(3,5-difluorophenyl)-7-fluoro-4-oxo-4H-quinolizin-2-yl)ethyl)amino)pyrimidine-5-carbonitrile] | 0.1 to 10
Cc1cccc2cc([C@H](C)Nc3nc(N)nc4[nH]cnc34)c(-c3ccccc3)c(=O)n12 (single isomer, unassigned) [Compound 8a, 2-(1-((2-Amino-9H-purin-6-yl)amino)ethyl)-6-methyl-3-phenyl-4H-quinolizin-4-one] | 0.1 to 10
C[C@H](Nc1ncnc(N)c1C#N)c1cc2ccc(F)cn2c(=O)c1-c1cccc(F)c1 (single isomer, unassigned) [Compound 16a, 4-Amino-6-((1-(7-fluoro-3-(3-fluorophenyl)-4-oxo-4H-quinolizin-2-yl)ethyl)amino)pyrimidine-5-carbonitrile] | 0.1 to 10
C[C@H](Nc1nc(N)nc2[nH]cnc12)c1cc2ccc(F)cn2c(=O)c1-c1ccccc1 [Compound 33, (S)-2-(1-((2-amino-9H-purin-6-yl)amino)ethyl)-7-fluoro-3-phenyl-4H-quinolizin-4-one] | 0.1 to 10
C[C@H](Nc1ncnc2cccnc12)c1cc2ccc(F)cn2c(=O)c1-c1ccccc1 [Compound 54, (S)-7-fluoro-3-phenyl-2-(1-(pyrido[3,2-d]pyrimidin-4-ylamino)ethyl)-4H-quinolizin-4-one] | 0.1 to 10
CC(c1cc2ccc(F)cn2c(=O)c1-c1ccccc1)n1nc(-c2ccc(O)c(F)c2)c2c(N)ncnc21 (stereo not shown) [Compound 60, 2-(1-(4-amino-3-(3-fluoro-4-hydroxyphenyl)-1H-pyrazolo[3,4-d]pyrimidin-1-yl)ethyl)-7-fluoro-3-phenyl-4H-quinolizin-4-one] | 11 to 50

From patent US9944639B2, “Quinolizinone derivatives as PI3K inhibitors” (Lupin Limited, priority 2014, dated 2018)
